In the supplement of paper PMC13380429:

Tests used:
Conditions in all cases: 72 h
U2OS [1] = assay: drug sensitivity score (DSS) for viability; higher = more toxic; extreme values may be limits of the assay
Vero E6 [2] = assay: as above
Caco-2 [3] = assay: as above
HepG2 [4] = assay: as above
Calu-3 [5] = assay: as above
U2OS [6] = assay: relative viability EC50 (midpoint between 100% and the lowest measured viability); higher = less toxic
Vero E6 [7] = assay: as above
Caco-2 [8] = assay: as above
HepG2 [9] = assay: as above
Calu-3 [10] = assay: as above
U2OS [11] = assay: cell viability relative to DMSO; higher = less toxic
Vero E6 [12] = assay: as above
Caco-2 [13] = assay: as above
HepG2 [14] = assay: as above
Calu-3 [15] = assay: as above

| SMILES | drug sensitivity score (U2OS [1]) | drug sensitivity score (Vero E6 [2]) | drug sensitivity score (Caco-2 [3]) | drug sensitivity score (HepG2 [4]) | drug sensitivity score (Calu-3 [5]) | relative viability EC50 (U2OS [6]) [µM] | relative viability EC50 (Vero E6 [7]) [µM] | relative viability EC50 (Caco-2 [8]) [µM] | relative viability EC50 (HepG2 [9]) [µM] | relative viability EC50 (Calu-3 [10]) [µM] | cell viability (U2OS [11]; 1 nM) [%] | cell viability (U2OS [11]; 10 nM) [%] | cell viability (U2OS [11]; 100 nM) [%] | cell viability (U2OS [11]; 1000 nM) [%] | cell viability (U2OS [11]; 10000 nM) [%] | cell viability (Vero E6 [12]; 1 nM) [%] | cell viability (Vero E6 [12]; 10 nM) [%] | cell viability (Vero E6 [12]; 100 nM) [%] | cell viability (Vero E6 [12]; 1000 nM) [%] | cell viability (Vero E6 [12]; 10000 nM) [%] | cell viability (Caco-2 [13]; 1 nM) [%] | cell viability (Caco-2 [13]; 10 nM) [%] | cell viability (Caco-2 [13]; 100 nM) [%] | cell viability (Caco-2 [13]; 1000 nM) [%] | cell viability (Caco-2 [13]; 10000 nM) [%] | cell viability (HepG2 [14]; 1 nM) [%] | cell viability (HepG2 [14]; 10 nM) [%] | cell viability (HepG2 [14]; 100 nM) [%] | cell viability (HepG2 [14]; 1000 nM) [%] | cell viability (HepG2 [14]; 10000 nM) [%] | cell viability (Calu-3 [15]; 1 nM) [%] | cell viability (Calu-3 [15]; 10 nM) [%] | cell viability (Calu-3 [15]; 100 nM) [%] | cell viability (Calu-3 [15]; 1000 nM) [%] | cell viability (Calu-3 [15]; 10000 nM) [%] |
| --- | --- | --- | --- | --- | --- | --- | --- | --- | --- | --- | --- | --- | --- | --- | --- | --- | --- | --- | --- | --- | --- | --- | --- | --- | --- | --- | --- | --- | --- | --- | --- | --- | --- | --- | --- |
| N=C(N)NC(=N)NCCc1ccccc1 [phenformin] | 0 | 0 | 0.5 | 0.3 | 0 | > 10 | > 10 | > 10 | > 10 | > 10 | 95.9 | 97.6 | 93.8 | 98.8 | 97.1 | 98.8 | 95.3 | 107 | 98.4 | 96.4 | 86.7 | 101 | 93.7 | 91.8 | 81.5 | 106 | 101 | 102 | 98 | 85.8 | 90.2 | 100 | 96.5 | 98.8 | 102 |
| CNC(=O)c1cnn(-c2nc(N)c3ncn([C@@H]4O[C@H](CO)[C@@H](O)[C@H]4O)c3n2)c1 [regadenoson] | 0 | 0 | 0 | 0 | 0 | > 10 | > 10 | > 10 | > 10 | > 10 | 95.9 | 92.1 | 102 | 99 | 104 | 101 | 93.7 | 86.2 | 103 | 111 | 101 | 97.4 | 91.1 | 94.3 | 108 | 102 | 105 | 102 | 90.7 | 117 | 91.7 | 104 | 106 | 102 | 103 |
| CN1CCC(c2c[nH]c3ccc(O)cc23)CC1 | 0 | 0 | 0 | 0 | 0 | > 10 | > 10 | > 10 | > 10 | > 10 | 98 | 103 | 98.7 | 102 | 95.8 | 105 | 102 | 98.8 | 91.7 | 101 | 98.7 | 100 | 95.4 | 100 | 92.1 | 98.5 | 96 | 94.4 | 83.4 | 100 | 91.9 | 92.8 | 87.9 | 98.7 | 90.3 |
| CCO[C@@H]1OC(=O)C[C@@H]1NC(=O)[C@@H]1CCCN1C(=O)[C@@H](NC(=O)c1ccc(N)c(Cl)c1)C(C)(C)C [VX-765] | 0 | 0 | 0.3 | 0.9 | 0 | > 10 | > 10 | > 10 | > 10 | > 10 | 98.2 | 104 | 94.7 | 100 | 98.8 | 98.8 | 102 | 95.2 | 93.9 | 100 | 97.7 | 104 | 117 | 98 | 86 | 95.5 | 103 | 88.4 | 88.3 | 92.2 | 111 | 93.8 | 90.5 | 95.5 | 98.6 |
| C[C@@H]1CN(Cc2ccc(F)cc2)[C@@H](C)CN1C(=O)c1cc2c(C(=O)C(=O)N(C)C)cn(C)c2cc1Cl [talmapimod] | 0 | 2.1 | 1.5 | 0 | 0 | > 10 | > 10 | > 10 | > 10 | > 10 | 106 | 101 | 103 | 96.9 | 90.6 | 96.1 | 103 | 93.5 | 84.6 | 85 | 103 | 99.2 | 90.4 | 86.4 | 91.8 | 112 | 108 | 100 | 104 | 104 | 106 | 101 | 99.8 | 92.9 | 100 |
| CCNC(=O)NS(=O)(=O)c1sc(CC(C)C)cc1-c1ccc(Cn2c(-c3ccccc3)nc(OC)c2C=O)cc1 [AVE-0991] | 0 | 0 | 0 | 0 | 0 | > 10 | > 10 | > 10 | > 10 | > 10 | 104 | 99.7 | 103 | 100 | 102 | 99.9 | 98.3 | 97.7 | 93.3 | 96 | 108 | 97.5 | 99.1 | 90.1 | 97.7 | 102 | 99.6 | 101 | 108 | 102 | 107 | 104 | 110 | 93.8 | 97.9 |
| O=C(NCc1ccc(OC(F)(F)F)cc1)C1c2ccccc2C(=O)N1C1CCOCC1 (stereo not given) [NAV-26] | 0 | 0 | 0 | 0 | 0 | > 10 | > 10 | > 10 | > 10 | > 10 | 99.3 | 94.5 | 99 | 95.9 | 91 | 95.7 | 101 | 88.7 | 98.9 | 107 | 100 | 90.6 | 105 | 96.8 | 99.2 | 107 | 91.6 | 96.7 | 112 | 112 | 103 | 97.6 | 93.8 | 99.5 | 100 |
| CN/C(=N\S(=O)(=O)c1ccc(Cl)cc1)N1C[C@H](c2ccccc2)C(c2ccc(Cl)cc2)=N1 (racemic) [SLV-319-(+/-)] | 0 | 0 | 0.2 | 0.1 | 0 | > 10 | > 10 | > 10 | > 10 | > 10 | 99.9 | 99.1 | 102 | 98.9 | 93.1 | 98.1 | 105 | 100 | 91.3 | 94.8 | 95.1 | 96.3 | 100 | 103 | 83.1 | 108 | 94.2 | 99.9 | 89.6 | 93.7 | 107 | 98.5 | 100 | 118 | 111 |
| O=C(c1cccc(Br)c1)N1CCC(N2CCCC2)CC1 [UNC926] | 0 | 0 | 0 | 0 | 0 | > 10 | > 10 | > 10 | > 10 | > 10 | 102 | 97.2 | 99.5 | 102 | 101 | 90.9 | 101 | 91.5 | 96.4 | 107 | 99.8 | 98.4 | 102 | 100 | 92.8 | 100 | 104 | 90.4 | 104 | 108 | 93.7 | 90.2 | 113 | 92.6 | 96.4 |
| CC1CNc2c(cccc2S(=O)(=O)N[C@@H](CCCNC(=N)N)C(=O)N2CC[C@@H](C)C[C@@H]2C(=O)O)C1 (mixture of isomers) [argatroban] | 0 | 0 | 0 | 0 | 0 | > 10 | > 10 | > 10 | > 10 | > 10 | 98.2 | 104 | 98.9 | 102 | 96.2 | 97.7 | 99.1 | 99.2 | 93.4 | 102 | 96.5 | 97.1 | 86.3 | 105 | 94.3 | 113 | 93.7 | 96.1 | 87.4 | 97.8 | 91.3 | 97.4 | 98.7 | 93.8 | 94.6 |
| CNNCc1ccc(C(=O)NC(C)C)cc1 [procarbazine] | 0 | 0 | 0 | 0 | 0 | > 10 | > 10 | > 10 | > 10 | > 10 | 96 | 103 | 96.4 | 98.7 | 106 | 103 | 93.2 | 102 | 89 | 102 | 98.2 | 105 | 96.2 | 101 | 87.4 | 103 | 87.7 | 93.3 | 112 | 110 | 92.2 | 99.3 | 97.4 | 102 | 90.8 |
| c1ccc(Oc2cccnc2)cc1 [CI-844] | 0 | 0 | 0 | 0 | 0 | > 10 | > 10 | > 10 | > 10 | > 10 | 100 | 103 | 94.9 | 97.2 | 96.1 | 101 | 103 | 100 | 99.8 | 98.7 | 96 | 97.6 | 90.4 | 93.1 | 93.2 | 102 | 103 | 94.3 | 97.4 | 106 | 104 | 101 | 89.9 | 94.1 | 106 |
| C#CCN[C@@H]1CCc2ccccc21 [rasagiline] | 0 | 0 | 0 | 0 | 0 | > 10 | > 10 | > 10 | > 10 | > 10 | 99.8 | 105 | 97.5 | 106 | 97.2 | 106 | 104 | 102 | 104 | 97.1 | 97 | 98 | 91.5 | 99 | 94.2 | 103 | 117 | 110 | 104 | 99.6 | 87 | 96.3 | 100 | 97.3 | 99.6 |
| Cn1c(=O)n(-c2ccc(C(C)(C)C#N)cc2)c2c3cc(-c4cnc5ccccc5c4)ccc3ncc21 [NVP-BEZ235] | 11.7 | 8.8 | 13.4 | 7.5 | 13.7 | 0.585 | 0.552 | 0.156 | 1.19 | 0.209 | 101 | 99.9 | 98.9 | 37.9 | 20.7 | 98.4 | 102 | 93.9 | 57.5 | 38.1 | 98.6 | 102 | 85.2 | 40.1 | 40.3 | 99.7 | 110 | 98.4 | 71.8 | 30.1 | 95.4 | 98.5 | 77.2 | 40.6 | 28.7 |
